Earlier results in patent publication US20190151246A1, “DELAYED-RELEASE TABLETS OF METHYLPHENIDATE” (PRODUCTS & TECHNOLOGY, S.L., priority 2016, published 2019).

COC(=O)C(c1ccccc1)C1CCCCN1 (centres unmarked) [methylphenidate, methyl 2-phenyl-2-(2-piperidyl)acetate]
half-life in children (children, estimated): approximately 2.5 hours | half-life (in vivo): 2 to 4 h
